Results: US20070196914A1, “Methods for preparing oil bodies comprising active ingredients” (SemBioSys Genetics Inc., priority 2003, published 2007)

Columns and labels:
[1] = Partitioning of active into washed safflower oil bodies (free oil / total oil extraction, HPLC or absorbance); format: physicochemical, safflower (Carthamus tinctorius); parameters: level of active incorporated into the oil bodies as a percentage of dry weight: concentration or dose not given beside the values; conditions: two-solvent loading, incubated overnight at 34-37° C. (CP 34-42° C.)
Description: Hexane extraction may be used to determine the amount of active present in the free oil (free oil is defined as oil not contained within oil bodies. Note that the intact oil bodies are largely resistant to extraction by hexane alone). (Tzen et al. (1997) J. Biochem 121: 762-768.) Once the free oil has been removed from the active/oil body fraction, an analysis of the total remaining oil may be performed using for example, hexane:isopropanol, chloroform, or chloroform:methanol solution extraction. The amount of active present in both the free oil fraction and the total oil fraction can be determined by a number of methods including, but not limited to, high performance liquid chromatography (HPLC), spectrophotometry, fluorescence, or activity assays depending on the active. By comparing the amount of active in both the free oil fraction and the total oil fraction the average amount of active incorporated into the intact oil bodies can be determined. In general, the efficiency of partitioning of the active into intact oil bodies can range from about 10 to about 99.9%. More typically however the efficiency of partitioning of the active into intact oil bodies will range from about 50 to about 99% and most typically from about 90 to about 99.
Washed safflower oil bodies were prepared as described in example 1. Oil bodies were preserved with 0.1 % Neolone 950 and 0.1 % glycacil L. Clobetasol propionate (CP) (Supplier-Sigma) was weighed (12-30 mg) into a clean and dry 16×100 mm screw-cap Pyrex test tube and mixed with 300 μl of isopropanol then 200 mg of safflower oil. The combined sample was vortexed and subsequently incubated at 34° C. for 20 minutes. After incubation, the sample was re-vortexed then dried under nitrogen for 20 minutes to remove the isopropanol. One ml of washed high dry weight oil bodies were added to the CP/safflower oil mixture at room temperature, centrifuged briefly to pellet contents to allow for thorough mixing, vortexed and further incubated at 34-42° C. overnight in an air tight tube to allow for incorporation of the CP and safflower oil into the oil bodies. A hexane extraction was used to determine the amount of CP present in the free oil (free oil is defined as oil not contained within oil bodies. Note that the intact oil bodies are largely resistant to extraction by hexane alone but all hexane extractions of loaded oil bodies must be corrected for damage done to intact oil bodies by the hexane through corrections using free oil values obtained from unloaded oilbodies). Three ml of hexane are added to the tubes and the tubes are shaken to mix 32 times. The samples are centrifuged in a swinging bucket clinical centrifuge at 3220×g for one minute to separate hexane from the oil body-aqueous phase. Note that the free oil will remain in the hexane layer (top). The hexane layer is removed to another tube and the hexane extraction is repeated on the remaining CP/oil body mixture. Once the majority of the solvent from the second extraction is added to the tube containing the first extract, the hexane containing tube is transferred to a heating block. The hexane was evaporated by subjecting the tubes to a gentle stream of high purity N2 gas while heating the block to 40-45° C. for at least 1.5 hours. Once the free oil was removed from the CP/oil body fraction, an analysis of the total remaining oil was performed. The remaining total oil in intact oil bodies was determined by adding 4 ml of a 3:2 hexane:isopropanol solution (HIP) and shaking to mix vigorously until all of the oil was dissolved in the HIP solvent (about 10-20 seconds). This was followed by the addition of 2.5 ml of 6.67% Na2SO4 (w/v) to the tube and the tube was shaken for another 10 seconds. Phase separation is facilitated by centrifugation for 2 minutes at 3220×g in a swinging bucket clinical centrifuge. The organic or upper phase is removed to a second test tube using a Pasteur pipette while avoiding the transfer of the aqueous phase. […]

[2] = Partitioning of phosphatidylcholine into washed safflower oil bodies (fluorescent tracer); format: physicochemical, safflower (Carthamus tinctorius); conditions: average
Description: Washed safflower oil bodies were prepared as described in example 1. Oil bodies were preserved with 0.1% Neolone 950 and 0.1% glycacil L. Phosphatidylcholine (PC, Supplier-Sigma) was weighed (1-300 mg) into a clean and dry 16×100 mm screw-cap Pyrex test tube. A fluorescent tracer (phosphatidic acid, Supplier-Molecular Probes) was added to the PC. The amount used was 0.05-0.25% the weight of the PC of a 1 mg/ml solution of tracer (resuspended following the manufacturer's instructions). 200 ul of isopropanol was added for every 10 mg of PC to dissolve the PC/tracer mixture. Buffer (50 mM NaH2PO4, pH 8.0) was added to the isopropanol mixture using the same buffer (50 mM NaH2PO4, pH 8.0) as the oilbodies were made in. The volume was equivalent to the volume of oilbodies being loaded. The PC/tracer/isopropanol/buffer mixture was sonicated on high for 15-30 seconds. […] Both the wash fractions and the oilbody fractions were assessed for fluorescence quantities after extraction with hexane using a total oil extraction procedure. The total oil extraction was done by adding 4 mls of a 3:2 hexane:isopropanol solution (HIP) to a measured amount of the sample and shaking to mix vigorously until all of the oil was dissolved in the HIP solvent (about 10-20 seconds). […] A known quantity of isopropanol was added to the extracted fractions and the sample was quantitated using a fluorescent spectrophotometer. […]

| Molecule | level of active incorporated into the oil bodies as a percentage of dry weight [1] [%] | average % of the active added that was incorporated into the intact oil bodies [1] [%] | amount of PC loaded in to the membrane of the oil body, % of the dry weight of the oil body ([2]; isopropanol/phosphate buffer pH 8.0, 37° C., without stearylamine) [%] | amount of PC loaded in to the membrane of the oil body, % of the dry weight of the oil body ([2]; stearylamine included in PC/tracer mixture at approximately 30% of the amount of PC) [%] |
| --- | --- | --- | --- | --- |
| CCC(=O)O[C@]1(C(=O)CCl)[C@@H](C)C[C@H]2[C@@H]3CCC4=CC(=O)C=C[C@]4(C)[C@@]3(F)[C@@H](O)C[C@@]21C [clobetasol propionate, (11β,16β)-21-chloro-9-fluoro-11-hydroxy-16-methyl-17-(1-oxopropoxy)pregna-1,4-diene-3,20-dione] | 0.316 | 94.7 | – | – |
| O=C(O)Cc1ccccc1Nc1c(Cl)cccc1Cl [diclofenac] | 1.36 | 43.9 | – | – |
| O=C1c2c(O)cccc2Cc2cccc(O)c21 [dithranol, 1,8-Dihydroxy-9(10H)-anthracenone] | 0.253 | 97.3 | – | – |
| CCCCNc1ccc(C(=O)OCCN(C)C)cc1 [tetracaine, 4-(butylamino)-Benzoic acid, 2-(dimethylamino)ethyl ester] | 2.43 | 90.8 | – | – |
| Phosphatidylcholine [PC] | – | – | 0.12 | 1.25 |
